Results taken from US20100172875A1, “OIL-IN-WATER EMULSION AND ITS USE FOR THE DELAYED RELEASE OF ACTIVE ELEMENTS” (NESTEC S.A., priority 2007, published 2010).
Read-outs that look alike come from different tables or passages of the source.

What was measured:
[1] = octanol/water partition coefficient (logP) of the active elements; type: physicochemical
Text: The logarithm of the octanol/water partition coefficient (logP) is used extensively to describe the lipophilic or hydrophobic properties of an active element. The logP property value is taken from the ratio of the respective concentrations of the active element in the n-octanol and water partitions of a two-phase system at equilibrium. Among other methods, the classical and most reliable method of logP determination is the shake-flask method, which consists of dissolving some of the active element in question in a volume of n-octanol and water, then measuring the concentration of the solute in each solvent (Organization for Economic Cooperation and Development, Guidelines for The Testing of Chemicals, OECD 107, Partition Coefficient (n-octanol/water)-Shake Flask Method, Adopted 27 Jul. 1995-, OECD, Paris, France).
Table 1 lists active elements used in the study, providing chemical name (first column), the Chemical Abstract Service number (CAS#, second column), supplier and supplier product code (third and fourth column), the logarithm of the octanol/water partition coefficient (logP) and the concentration used in final formulations in parts per million of volume (ppmV). These nine active elements are volatile aroma compounds.

[2] = active element release into the headspace of emulsions under in vitro dynamic conditions, monitored by PTR-MS; type: physicochemical; details: for significance of Tmax difference: emulsion of this invention 5 wt % (MG:MCT 1:20) vs simple reference emulsion 5 wt % MCT, Fisher LSD, α<0.05
Text: The Tmax of a given active element released from a given emulsion is a parameter determined from the curve representing the variation over time of the given active element concentration in the water phase or in the headspace of the emulsion or of product containing the emulsion under dynamic condition (denoted as release curve) as time at which the measured concentration of the given active element reaches its maximum (FIG. 1). The analytical methods that can be applied for measurement of release curve and corresponding Tmax in dynamic condition include, but are not restricted to, measuring in headspace under a continuous purging flow of nitrogen and analyzing the active element in the purged headspace gas through its specific mass-to-charge using Proton Transfer Reaction-Mass Spectrometry (PTR-MS) (Pollien, P., Lindinger, C., Yeretzian, C., and Blank, I., “Proton Transfer Reaction Mass Spectrometry, a Tool for On-Line Monitoring of Acrylamide Formation in the Headspace of Maillard Reaction Systems and Processed Food,” Analytical Chemistry, Vol. 75, No. 20, 2003, pp. 5488-5494).
A double-jacketted glass cell was held at 36° C. with a circulating water bath. This cell was put in the oven which was held at 60° C. in order to avoid cold points and water condensation. The headspace cell was continuously purged at 200 sccm (standard cubic centimeters per minute) with pure nitrogen. Prior to introduction into the PTR-MS, the headspace was diluted with 1960 sccm of nitrogen to avoid water saturation of the instrument.
When all the set-up had been thermo-stabilized, 100 ml of sample, after being stabilized at 36° C. in a water bath, was poured inside the cell, which was quickly reconnected and put under agitation at 135 rpm. The release of active elements was monitored on-line during 10 minutes for each sample.
Nine specific masses were selected based on the scan data, i.e., m/z 45 for acetaldehyde, m/z 83 for cis-3-Hexen-1-ol, m/z 87 for diacetyl, m/z 99 for 2E-hexenal, m/z 107 for benzaldehyde, m/z 111 for octanal, m/z 131 for ethyl isovalerate, m/z 137 linalool, m/z 167 for 3-methoxy-2-isobutylpyrazine.
The PTR-MS signals (ion count) enabled us to calculate the active element concentration in the headspace of the emulsion so that to build the release curve for the active element. Cmax of a given active element released from a given emulsion was determined from the release curve as the maximum concentration of the active element released in the headspace of the emulsion, expressed in ppmV (parts per million in volume).
Tmax of a given active element released from a given emulsion was determined from the release curve as the time to reach maximum concentration of the active element released in the headspace of the emulsion, expressed in seconds. The nine active elements are listed in X axis and sorted along their logP, from the lowest logP value (hydrophilic compounds) to the highest logP (lipophilic compounds). Black, grey and hatched bars represent respectively Tmax the active elements released in the headspace of an oil-in-water emulsion containing with 10 wt % Medium Chain Triglycerides (MCT) (herein labelled as simple emulsion with 10 wt % MCT), of an oil-in-water emulsion containing 5 wt % MCT (herein labelled as simple reference emulsion with 5 wt % MCT), and an oil-in-water emulsion containing 5 wt % of an 1:20 mixture of a unsaturated monoglyceride (DIMODAN MO90, Danisco, Denmark) and MCT (herein Emulsion of the present invention with 5 wt % (MG:MCT 1:20)). All Tmax values were obtained on 6 replicated measurements. Tmax of 2E-Hexenal for the simple emulsion with 10 wt % MCT is not determined because its concentration in the headspace was continuously and gradually increasing over the 10 minutes of measurement. […]

[3] = n-octanol/water, logarithm of the octanol/water partition coefficient, read-out: logP

Structure (SMILES)	logP [1]	significance of Tmax difference [2]	logP [1, 3]	Cmax released in headspace, comparison ([2]; emulsion of the present invention 5 wt % (MG:MCT 1:20) vs simple emulsion 10 wt % MCT)	logP ([1]; logarithm of the octanol/water partition coefficient)
CC(=O)C(C)=O [Diacetyl]	−1.332	non-significant difference			
O=Cc1ccccc1 [Benzaldehyde]		significant increase			
CCC/C=C/C=O [Example 2E-hexenal, 2E-hexenal]					1.576
CC=O [Acetaldehyde]		non-significant difference	-0.156		
CC/C=C\CCO [cis-3-Hexen-1-ol]		significant increase	[…]		
CCCCCCCC=O [Octanal]		significant increase	3.03		

More lines, main results first:

logP [1]	significance of Tmax difference [2]	logP [1, 3]	Cmax released in headspace, comparison ([2]; emulsion of the present invention 5 wt % (MG:MCT 1:20) vs simple emulsion 10 wt % MCT)	Structure (SMILES)	logP ([1]; logarithm of the octanol/water partition coefficient)
	significant increase	2.12		CCOC(=O)CC(C)C [Ethyl isovalerate]	
	significant increase	2.62		COc1nccnc1CC(C)C [3-methoxy-2-isobutylpyrazine]	
	significant increase	3.28	significantly higher	C=CC(C)(O)CCC=C(C)C (centres unmarked) [Linalool]	
